The text below walks through data of ChEMBL document CHEMBL5727399, “Ectonucleotidase inhibitors and methods of use thereof” (2019).

Each structure is given as a SMILES string. Several values for one entry are separate records, joined by “and”; a condition that tells them apart may be missing. Identical values can stand only once.

The term IC50 denotes the concentration that inhibits the measured activity by half. A low value points to inhibition by little substance.

Sequence of 5'-nucleotidase (P21589 whole entry): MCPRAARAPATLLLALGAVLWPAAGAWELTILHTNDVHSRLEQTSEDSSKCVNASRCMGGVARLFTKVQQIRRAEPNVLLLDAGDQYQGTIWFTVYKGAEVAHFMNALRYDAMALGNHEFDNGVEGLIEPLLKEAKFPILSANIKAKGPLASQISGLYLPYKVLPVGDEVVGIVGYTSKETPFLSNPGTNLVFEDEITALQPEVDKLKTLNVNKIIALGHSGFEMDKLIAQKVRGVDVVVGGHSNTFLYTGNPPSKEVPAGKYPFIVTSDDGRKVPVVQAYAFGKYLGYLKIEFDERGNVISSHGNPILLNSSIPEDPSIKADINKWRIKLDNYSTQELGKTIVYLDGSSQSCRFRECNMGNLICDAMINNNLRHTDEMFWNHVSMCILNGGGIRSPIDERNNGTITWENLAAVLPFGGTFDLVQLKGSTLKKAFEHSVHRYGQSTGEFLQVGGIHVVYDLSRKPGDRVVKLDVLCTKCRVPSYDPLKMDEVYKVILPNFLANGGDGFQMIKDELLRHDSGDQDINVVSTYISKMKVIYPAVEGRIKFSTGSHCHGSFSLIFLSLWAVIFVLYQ

This assay concerns the target 5'-nucleotidase (Homo sapiens, UniProt P21589). As to the kind of experiment: The concentration of inorganic phosphate was determined using a phosphate standard curve.
As to `O=C(O)C(OC[C@H]1O[C@@H](n2cnc3c(NCc4ccccc4)nc(Cl)nc32)[C@@H](F)[C@@H]1O)C(=O)O`, the IC50 came to 8780 nM.
For `Nc1nc(Cl)nc2c1ncn2[C@@H]1O[C@H](COC(Cc2cnc(C(=O)O)s2)(C(=O)O)C(=O)O)[C@@H](O)[C@@H]1F`, the concentration for half-maximal inhibition (IC50) was 602 nM.
In the case of `N#Cc1ccc(CC(OC[C@H]2O[C@@H](n3cnc4c(N)nc(Cl)nc43)[C@@H](F)[C@@H]2O)(C(=O)O)C(=O)O)cc1F`, the IC50 amounted to 887 nM.
The same measure for `Nc1nc(Cl)nc2c1ncn2[C@@H]1O[C@H](COC(Cc2ccc(-c3ccccc3)cc2)(C(=O)O)C(=O)O)[C@@H](O)[C@@H]1F`: 29 nM; for `N#Cc1cccc(CC(OC[C@H]2O[C@@H](n3cnc4c(N)nc(N=[N+]=[N-])nc43)[C@@H](F)[C@@H]2O)(C(=O)O)C(=O)O)c1`: 1280 nM.
Regarding `Nc1nc(Cl)nc2c1ncn2[C@H]1C[C@H](O)[C@@H](COC(C(=O)O)C(=O)O)O1`, the half-inhibitory concentration (IC50) is above 50000 nM.
The same measure for `CCOC(=O)C(Cc1ccc(OC(F)(F)F)cc1)(OC[C@H]1O[C@@H](n2cnc3c(N)nc(Cl)nc32)[C@@H](F)[C@@H]1O)C(=O)O` (some centres not stated): 718 nM; for `Nc1nc(Cl)nc2c1ncn2[C@@H]1O[C@H](COC(CCCCO)(C(=O)O)C(=O)O)[C@@H](O)[C@@H]1F`: 1890 nM.
The same measure for `CNC(=O)C(OC[C@H]1O[C@@H](n2cnc3c(N)nc(Cl)nc32)[C@@H](F)[C@@H]1O)P(=O)(O)O` (some centres not stated): 12000 nM.
For `Nc1nc(Cl)nc2c1ncn2[C@@H]1O[C@H](COC(CC(=O)O)(C(=O)O)C(=O)O)[C@@H](O)[C@@H]1F`, inhibition was half-maximal at 2560 nM (IC50).
The same measure for `[N-]=[N+]=N[C@H]1[C@@H](O)[C@H](n2cnc3c(N)nc(Cl)nc32)O[C@@H]1COC(C(=O)O)C(=O)O`: above 50000 nM; for `Nc1nc(Cl)nc2c1ncn2[C@@H]1O[C@H](COC(CC(=O)O)C(=O)O)[C@@H](O)[C@@H]1F` (some centres not stated): above 50000 nM; for `N#CCC(OC[C@H]1O[C@@H](n2cnc3c(N)nc(Cl)nc32)[C@@H](F)[C@@H]1O)(C(=O)O)C(=O)O`: 1510 nM.
The same measure for `CCOC(=O)C(OC[C@H]1O[C@@H](n2cnc3c(N)nc(Cl)nc32)[C@@H](F)[C@@H]1O)P(=O)(O)O` (single isomer, unassigned): 2790 nM and 8910 nM; for `COC(=O)C(Cc1ccc(-c2ccccc2)cc1)(OC[C@H]1O[C@@H](n2cnc3c(N)nc(Cl)nc32)[C@@H](F)[C@@H]1O)C(=O)O` (single isomer, unassigned): 2860 nM and 3430 nM; for `CCOC(=O)C(Cc1ccc(-c2ccccc2)cc1)(OC[C@H]1O[C@@H](n2cnc3c(N)nc(Cl)nc32)[C@@H](F)[C@@H]1O)C(=O)O` (single isomer, unassigned): 7260 nM and 8260 nM.
In the case of `CCOC(=O)C(OC[C@H]1O[C@@H](n2cnc3c(NC(=O)OC(C)(C)C)nc(Cl)nc32)[C@@H](F)[C@@H]1O)P(=O)(O)O` (single isomer, unassigned), the IC50 is 2470 nM and 2950 nM.
